# Measurements taken from patent US20220378773A1, “METHODS FOR TREATING LEUKEMIA AND USE OF A LEUKEMIC STEM CELL SIGNATURE TO PREDICT CLINICAL SENSITIVITY TO THERAPIES” (CELGENE CORPORATION, priority 2019, published 2022).
# “Also recorded” adds a separate entry of the source.
# Key:
# [1] = system: colony forming leukemia progenitors; assay: Acute myeloid leukemia colony forming unit (AML-CFU) assay; assay type: cell-based, human
# Protocol: For the AML-colony forming unit (CFU) assay, 0.9% methylcellulose semi-solid culture was used, containing 15% fetal calf serum (FCS), 15% pretested human plasma, 50 μM β mercaptoethanol, and cytokines at concentrations of 100 ng/mL stem cell factor, 100 ng/mL Flt-3 ligand, 20 ng/mL IL-6, 20 ng/mL GM-CSF, 20 ng/mL IL-3, and 3 U/mL of erythropoietin (Amgen, USA).
# Cell Culture: Acute myeloid leukemia cells were plated in 0.9% methylcellulose containing 15% FCS, 15% pretested human plasma, 50 μM β-mercaptoethanol, and cytokines at concentrations of 100 ng/mL stem cell factor, 100 ng/mL Flt-3 ligand, 20 ng/mL IL-6, 20 ng/mL GM-CSF, 20 ng/mL IL-3 and 3 U/mL of erythropoietin (Amgen, USA). Acute myeloid leukemia cells were cultured with DMSO or Compound D (prepared as described below) during suspension and CFU assays.
# Assay Procedure: After the AML cultures were incubated with DMSO or Compound D for 12 to 14 days at 37° C., plates were assigned scores for the presence of AML-CFU (CFU defined as >50 cells).
# Colony assays were performed in semisolid culture supplemented with growth factors, in the presence of Compound D, or DMSO for control. Colonies were counted at Day 14.
# [2] = system: AML graft (human CD45+CD33+ cells); assay: AML xenograft efficacy, 2.5 mg/kg IP twice daily; assay type: in vivo, NOD/SCID mice; conditions: AML Patient 90668; 500,000 cells per mouse; dosing from Day 21
# [3] = system: AML graft (CD34, CD15, CD14, CD11b); assay: Cell surface marker phenotype of AML graft after treatment; assay type: in vivo, NOD/SCID mice
# Text: After treatment finished, cells were harvested from both injected right femur (RF) and non-injected bone marrow (BM, including left femur, 2 tibias), and stained with human antibodies to assess the engraftment levels of AML. Antibodies used for staining included: Mouse anti-human CD45-APC, CD15-FITC, CD34-APC7, CD38-PC7 (BD Biosciences, USA), CD14-PE, CD33-PC5 (Beckman Coulter, USA), CD19-V450, CD19-AF700, CD11b-APC7, CD34-BV421 (BD Biosciences, USA), and propidium iodide (PI; Invitrogen, USA).
# With the observation that Compound D has dramatic effect against AML in mice, the question of whether Compound D targets primitive leukemic cells and induces differentiation was investigated next because AML cells are immature blasts with differentiation and maturation blockage in patients. Samples that were focused on were the samples that still had clear residual leukemia cells in the mice following Compound D treatment. […] The majority of cells harvested from the mice transplanted with patient sample 120093 were CD34+ primitive cells lacking in CD15 expression. […] CD11b is also a myeloid differentiation marker and was increased on patient 150250 grafted cells in parallel with increased expression of another myeloid differentiation marker CD15. […] The changes of CD15, CD14 and CD34 positive populations are summarized in FIGS. 12C-12E and 3 different patterns after Compound D treatment are apparent: increase, decrease, or no change of the populations in AML, graft. The samples with reduction of CD34+ primitive cells and increase of CD15+ and/or CD14+ cells are the samples responding well to Compound D (such as patient samples 110555, 110500, and 120093). […] Secondary transplantation may be performed to determine whether Compound D targeted the LSCs with self-renewal capacity.
# [4] = system: leukemic stem cells (LSCs); assay: Secondary transplantation without limiting dilution; assay type: in vivo, NOD/SCID mice
# Protocol: For secondary transplant NOD/SCID mice were sublethally irradiated (275 cGy) and pretreated with anti-CD122 antibody (200 μg/mouse) to deplete residual host natural killer cells. On the day of transplantation, viably frozen cells harvested from the vehicle- or Compound D-treated primary mice were thawed, counted, mouse-cell depleted (Mouse Cell Depletion Kit, Miltenyi Biotec, USA), and transplanted intrafemorally into the pretreated secondary mice at limiting doses described above. For secondary transplant without LDA, thawed cells were not depleted of mouse cells before transplantation. At 12 weeks post secondary transplantation, mice were euthanized, and bone marrow was collected and analyzed.
# To determine if quiescent LSCs are resistant to Compound D, secondary transplantation of AML cells of high responders was performed. High responders were identified as samples in which leukemia cells were almost undetectable in the primary mouse bone marrow following Compound D treatment. If rare quiescent LSCs are maintained in the residual leukemia cells following Compound D dosing, then those quiescent LSCs may become active and repopulate secondary mice after undergoing serial transplantations. Four LSC17 high samples that had AML blasts eradicated by Compound D treatment were selected for secondary transplantation (see Table 9) by injecting total combined bone marrow cells collected from 5 primary mice treated with either vehicle or Compound D into 5 secondary mice. In this way cells collected from one primary mouse were injected into one secondary mouse without any cell dose dilution or losing any residual cells. […] Cells from AML Patient 150238 harvested from vehicle-treated primary mice repopulated only one of 5 secondary mice.
# [5] = system: normal cord blood-derived human graft; design: species or system NOD/SCID mice; conditions: mouse, in vivo
# Protocol: Normal cord blood experiment was carried out similar to what has been described as above but using CD34+ cells isolated from normal cord blood. Two or three normal donors were pulled together to generate enough cells for each of the CB engraftments, termed CB1 and CB2.
# Compound D toxicity on normal hematopoietic cells was investigated using CB samples. Mice were transplanted with two different CB samples (CB1 and CB2) and dosed with 2.5 mg/kg Compound D or vehicle control BID intraperitoneally. Flow cytometric analyses from a representative mouse from the vehicle- and Compound D-treated groups are shown in FIG. 8A and FIG. 8B, respectively.
structure (smiles),measurement,setting,value
"O=C1CCC(N2Cc3cc(CNC(=O)C(F)(F)c4ccc(Cl)cc4)ccc3C2=O)C(=O)N1 (centres unmarked) [Compound D, 2-(4-chlorophenyl)-N-((2-(2,6-dioxopiperidin-3-yl)-1-oxoisoindolin-5-yl)methyl)-2,2-difluoroacetamide]","colony formation, high vs low LSC17 score samples",[1]; 3 high and 3 low LSC17 samples,reduced colony formation of the samples with high LSC17 scores more than the samples with low LSC17 samples
same,colony formation,"[1]; 7 samples that formed colonies, increasing concentration",all 7 samples had reduced colony formation
same,colony forming leukemia progenitors,[1]; Section 6.3 samples,inhibited colony forming leukemia progenitors
same,survival,[2],did not improve survival
same,expression of myeloid differentiation marker CD15,[3]; 3 representative samples,clear increased expression
same,CD11b+ leukemia cells,[3]; Patient 130826,decreased CD11b+ leukemia cells
same,expression of monocytic cell marker CD14,[3]; graft of patient 120287,induced expression of monocytic cell marker CD14
same,CD11b on grafted cells,[3]; patient 150250,increased
same,CD14+ cells,[3]; patient sample 100474,only eliminated CD14+ cells
same,CD15 expression,[3]; patient sample 120093,induced CD15 expression
same,CD34+ cell population,[3]; patient sample 120093,reduced CD34+ cell population
same,CD34+ cells in the graft,[3]; patient samples 100348 and 130826,reduced CD34+ cells
same,repopulation of secondary mice,"[4]; AML 0590 and AML 110102, cells from Compound D-treated primary mice",did not repopulate the secondary mice
same,LSC Status in Secondary Mice Injected with Compound D Treated Primary Cells,[4]; Patient 110625,repopulated the bone marrow of one secondary mouse; also recorded: LSC in BM
same,No. mice with LSC engrafted/No. injected mice in the group,"[4]; Patient 110625, cells from Compound D-treated primary mice",1/5 (in BM
same,LSC Status in Secondary Mice Injected with Compound D Treated Primary Cells,[4]; Patient 130311,did not proliferate/repopulate any of the secondary mice; also recorded: not engrafted
same,No. mice with LSC engrafted/No. injected mice in the group,"[4]; Patient 130311, cells from Compound D-treated primary mice",0/4
same,LSC Status in Secondary Mice Injected with Compound D Treated Primary Cells,[4]; Patient 130826,did not proliferate/repopulate any of the secondary mice; also recorded: not engrafted
same,No. mice with LSC engrafted/No. injected mice in the group,"[4]; Patient 130826, cells from Compound D-treated primary mice",0/5
same,LSC Status in Secondary Mice Injected with Compound D Treated Primary Cells,[4]; Patient 150238,did not repopulate any secondary mice; also recorded: no LSC
same,No. mice with LSC engrafted/No. injected mice in the group,"[4]; Patient 150238, cells from Compound D-treated primary mice",0/5
same,human graft remaining after treatment,"[5]; NOD/SCID, 4 weeks",5-10%
same,percentage of CD34+ cells,"[5]; NOD/SCID, 4 weeks",did not decrease the percentage of CD34+ cells
same,CD34+CD19+ primitive lymphoid cells,[5],significantly decreased
same,CD34+CD33+ primitive myeloid cells,[5],not targeted
same,absolute number of CD34+ cells,[5],significantly reduced
same,number of CD19+ lymphocytes,[5],significantly decreased
same,percentages of CD34+CD38− primary cells,[5],not specifically targeted
same,proportion of CD33+ myeloid cells,[5],increased
